Activity calls are given as the source filed them. No cut-off for these calls is given here.
Tests used:
[1] = Drug concentration in tumor of C57BL/6 mouse implanted with mouse B16-F10 cells at 50 mg/kg, ip measured after 1 hrs by UPLC-MS/MS analysis; format: ADME, organism-based, Neoplasm; details: read-out: Ct
[2] = Tmax in C57BL/6 mouse at 50 mg/kg, ip measured after 4 hrs by HPLC-MS/MS analysis; format: ADME, organism-based; details: in vivo
[3] = Toxicity in allogenic BALB/c mouse implanted with mouse B16-F10 cells assessed as severe crypt necrosis in colon at 50 mg/kg, ip by H&E staining based analysis; format: organism-based; details: in vivo
[4] = Clearance in C57BL/6 mouse at 50 mg/kg, ip measured after 4 hrs by HPLC-MS/MS analysis; format: ADME, organism-based; details: in vivo
[5] = MRT (0 to t) in C57BL/6 mouse at 50 mg/kg, ip measured after 4 hrs by HPLC-MS/MS analysis; format: ADME, organism-based; details: in vivo
B16-F10 [6] = assay: Antitumor activity against mouse B16-F10 cells implanted in allogenic BALB/c mouse assessed as increase in CXCL10 mRNA level in tumor at 50 mg/kg, ip by qPCR analysis; format: functional, organism-based
[7] = Initial drug concentration in Sprague-Dawley rat at 1 mg/kg, iv administered as single dose and measured after 48 hrs by HPLC-MS/MS analysis; format: ADME, organism-based; details: in vivo
[8] = Drug concentration in plasma of C57BL/6 mouse implanted with mouse B16-F10 cells at 50 mg/kg, ip measured after 0.5 hrs by UPLC-MS/MS analysis; format: ADME, organism-based
[9] = Clearance in Sprague-Dawley rat at 1 mg/kg, iv administered as single dose and measured after 48 hrs by HPLC-MS/MS analysis; format: ADME, organism-based; details: in vivo
[10] = Drug concentration in heart of C57BL/6 mouse implanted with mouse B16-F10 cells at 50 mg/kg, ip measured after 0.5 hrs by UPLC-MS/MS analysis; format: ADME, organism-based; details: read-out: Ct
[11] = Cmax in C57BL/6 mouse at 50 mg/kg, ip measured after 4 hrs by HPLC-MS/MS analysis; format: ADME, organism-based; set-up: dose 50 mg/kg, time 4 hrs, route ip; details: in vivo
[12] = biological target: Programmed cell death protein 1/Programmed cell death 1 ligand 1 (Homo sapiens) (UniProt Q15116+Q9NZQ7); assay: Inhibition of GST-tagged PD-1 (unknown origin)/His-tagged PD-L1 (unknown origin) interaction at 10 nM by HTRF binding assay relative to control; format: protein-complex assay
[13] = Drug concentration in liver of C57BL/6 mouse implanted with mouse B16-F10 cells at 50 mg/kg, ip measured after 4 hrs by UPLC-MS/MS analysis; format: ADME, organism-based; details: read-out: Ct
[14] = Drug concentration in plasma of C57BL/6 mouse implanted with mouse B16-F10 cells at 50 mg/kg, ip measured after 2 hrs by UPLC-MS/MS analysis; format: ADME, organism-based
B16-F10 [15] = assay: Antitumor activity against mouse B16-F10 cells implanted in allogenic BALB/c mouse assessed as decrease in PD-L1 protein level at 50 mg/kg, ip by flow cytometric analysis; format: functional, organism-based
[16] = AUC (0 to t) in Sprague-Dawley rat at 20 mg/kg, po measured after 48 hrs by HPLC-MS/MS analysis; format: ADME, organism-based; set-up: dose 20 mg/kg, time 48 hrs, route po; details: in vivo
[17] = biological target: Programmed cell death protein 1/Programmed cell death 1 ligand 1 (Homo sapiens, UniProt Q9NZQ7); assay: Inhibition of GST-tagged PD-1 (unknown origin)/His-tagged PD-L1 (unknown origin) interaction by HTRF binding assay relative to control; format: protein-complex assay
Chain of Programmed cell death protein 1/Programmed cell death 1 ligand 1 (Q15116 whole entry): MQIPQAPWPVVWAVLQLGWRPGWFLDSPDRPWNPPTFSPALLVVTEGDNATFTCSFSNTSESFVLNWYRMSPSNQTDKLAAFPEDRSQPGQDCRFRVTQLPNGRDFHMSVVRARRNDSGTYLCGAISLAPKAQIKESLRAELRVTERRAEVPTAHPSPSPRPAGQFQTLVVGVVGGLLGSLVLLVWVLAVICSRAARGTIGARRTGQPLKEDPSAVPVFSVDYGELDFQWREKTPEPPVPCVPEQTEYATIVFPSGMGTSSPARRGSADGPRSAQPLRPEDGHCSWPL
Chain of Programmed cell death protein 1/Programmed cell death 1 ligand 1 (Q9NZQ7 whole entry): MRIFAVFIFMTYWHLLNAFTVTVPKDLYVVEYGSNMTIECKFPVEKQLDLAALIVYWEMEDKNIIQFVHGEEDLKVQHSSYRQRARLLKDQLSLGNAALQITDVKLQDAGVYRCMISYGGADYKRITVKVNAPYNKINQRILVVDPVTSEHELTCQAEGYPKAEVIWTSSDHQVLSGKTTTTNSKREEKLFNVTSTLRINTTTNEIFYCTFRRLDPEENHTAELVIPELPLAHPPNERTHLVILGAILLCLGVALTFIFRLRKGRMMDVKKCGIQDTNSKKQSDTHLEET

B16-F10 [18] = assay: Antitumor immunity against mouse B16-F10 cells implanted in allogenic BALB/c mouse assessed as increase in CD3+ T cells at 50 mg/kg, ip by flow cytometric analysis (reference value: 2.51%); format: functional
[19] = AUC (0 to infinity) in Sprague-Dawley rat at 1 mg/kg, iv administered as single dose and measured after 48 hrs by HPLC-MS/MS analysis; format: ADME, organism-based; set-up: dose 1 mg/kg, time 48 hrs, route iv; details: in vivo
[20] = MRT (0 to infinity) in Sprague-Dawley rat at 20 mg/kg, po measured after 48 hrs by HPLC-MS/MS analysis; format: ADME, organism-based; details: in vivo
[21] = Apparent volume of distribution in C57BL/6 mouse at 50 mg/kg, ip measured after 4 hrs by HPLC-MS/MS analysis; format: ADME, organism-based; details: in vivo
[22] = Drug concentration in kidney of C57BL/6 mouse implanted with mouse B16-F10 cells at 50 mg/kg, ip measured after 1 hrs by UPLC-MS/MS analysis; format: ADME, organism-based; details: read-out: Ct
[23] = Toxicity in syngeneic C57BL/6 mouse implanted with mouse B16-F10 cells assessed as effect on body weight at 50 mg/kg, ip measured after 12 days; format: organism-based; details: in vivo, 288 h, time 12 day
B16-F10 [24] = assay: Antitumor activity against mouse B16-F10 cells implanted in BALB/c mouse assessed as reduction in tumor volume at 50 mg/kg, ip administered once daily for 14 days relative to control; format: functional; set-up: scale not given: the % may be the effect or the level left; details: time 14 day
B16-F10 [25] = assay: Antitumor activity against mouse B16-F10 cells implanted in BALB/c mouse assessed as reduction in tumor weight at 50 mg/kg, ip administered once daily for 14 days relative to control; format: functional; set-up: scale not given: the % may be the effect or the level left; details: time 14 day
[26] = Cmax in Sprague-Dawley rat at 20 mg/kg, po measured after 48 hrs by HPLC-MS/MS analysis; format: ADME, organism-based; set-up: dose 20 mg/kg, time 48 hrs, route po; details: in vivo
[27] = Drug concentration in kidney of C57BL/6 mouse implanted with mouse B16-F10 cells at 50 mg/kg, ip measured after 2 hrs by UPLC-MS/MS analysis; format: ADME, organism-based; details: read-out: Ct
[28] = Drug concentration in tumor of C57BL/6 mouse implanted with mouse B16-F10 cells at 50 mg/kg, ip measured after 4 hrs by UPLC-MS/MS analysis; format: ADME, organism-based, Neoplasm; details: read-out: Ct
[29] = Half-life in Sprague-Dawley rat at 1 mg/kg, iv administered as single dose and measured after 48 hrs by HPLC-MS/MS analysis; format: ADME, organism-based; details: in vivo
[30] = Drug concentration in kidney of C57BL/6 mouse implanted with mouse B16-F10 cells at 50 mg/kg, ip measured after 0.5 hrs by UPLC-MS/MS analysis; format: ADME, organism-based; details: read-out: Ct
[31] = Drug concentration in spleen of C57BL/6 mouse implanted with mouse B16-F10 cells at 50 mg/kg, ip measured after 2 hrs by UPLC-MS/MS analysis; format: ADME, organism-based; details: read-out: Ct
[32] = Half-life in C57BL/6 mouse at 50 mg/kg, ip measured after 4 hrs by HPLC-MS/MS analysis; format: ADME, organism-based; details: in vivo
[33] = Tmax in Sprague-Dawley rat at 20 mg/kg, po measured after 48 hrs by HPLC-MS/MS analysis; format: ADME, organism-based; details: in vivo
[34] = AUC (0 to infinity) in C57BL/6 mouse at 50 mg/kg, ip measured after 4 hrs by HPLC-MS/MS analysis; format: ADME, organism-based; set-up: dose 50 mg/kg, time 4 hrs, route ip; details: in vivo
B16-F10 [35] = assay: Antitumor activity against mouse B16-F10 cells implanted in syngeneic C57BL/6 mouse assessed as inhibition of tumor growth at 50 mg/kg, ip measured after 12 days; format: functional, organism-based; details: time 12.0 day
Jurkat = assay: Cytotoxicity against human Jurkat T cells assessed as reduction in cell viability at 1.1 to 10 uM incubated for 48 hrs by CCK-8 assay; format: toxicity, cell-based; details: dose 1.1-10 µM
[36] = MRT (0 to t) in Sprague-Dawley rat at 20 mg/kg, po measured after 48 hrs by HPLC-MS/MS analysis; format: ADME, organism-based; details: in vivo

## Cc1c(COc2cc(OCc3cccc(C#N)c3)c(CN3CCCCC3C(=O)NCCNC(=O)CCCC[C@@H]3SC[C@@H]4NC(=O)N[C@@H]43)cc2Cl)cccc1-c1ccccc1 (some centres not stated)
[1]
  concentration at 1 h: 28.4 ng/mL
[2]
  Tmax: 2.4 h
[3]
  Activity: Non-Toxic
[4]
  CL: 122.6 mL/min/kg
[5]
  MRT last at 4 h: 2.24 h
B16-F10 [6]
  Activity: Active
[7]
  C0 at 48 h: 257 ng/mL
[8]
  concentration at 0.5 h: 910 ng/mL
[9]
  clearance: 21.7 mL/min/kg
[10]
  concentration at 0.5 h: 4.7 ng/mL
[11]
  Cmax: 1540 ng/mL
[12]
  inhibition: 103%
[13]
  concentration at 4 h: 3650 ng/mL
[14]
  concentration at 2 h: 1400 ng/mL
B16-F10 [15]
  Activity: Active
[16]
  AUCt: 1160 ng·h/mL
[17]
  IC50: 1.8 nM
B16-F10 [18]
  Activity: 24.9%
[19]
  AUC: 832 ng·h/mL
[20]
  MRT inf: 7.1 h
[21]
  Vz: 39.163 L/kg
[22]
  concentration at 1 h: 219 ng/mL
[23]
  Activity: Non-Toxic
B16-F10 [24]
  Activity: 76.5%
B16-F10 [25]
  Activity: 66.1%
[26]
  Cmax: 177 ng/mL
[27]
  concentration at 2 h: 208 ng/mL
[28]
  concentration at 4 h: 94.2 ng/mL
[29]
  half-life: 18.1 h
[30]
  concentration at 0.5 h: 134 ng/mL
[31]
  concentration at 2 h: 7180 ng/mL
[32]
  t1/2: 14.587 h
[33]
  Tmax: 3.3 h
[34]
  AUC: 14501.641 µg/L/h
B16-F10 [35]
  Activity: Active
Jurkat
  Activity: Non-Toxic
[36]
  MRT last at 48 h: 6.9 h

Reference: ChEMBL document CHEMBL5346977, “Discovery of Novel d-(+)-Biotin-Conjugated Resorcinol Dibenzyl Ether-Based PD-L1 Inhibitors for Targeted Cancer Immunotherapy” (J Med Chem, 2023)
